# Measured values as given in patent publication US11964973B2 (priority 2019, dated 2024).
# Tested on: Human venous whole blood (IFN-γ)
# Assay: Human whole blood IFN-γ assay
# Assay type: cell-based
# Conditions: Homo sapiens, 24 h, human whole blood, anti-CD3 plus anti-CD28, 24 hours; read-out: INFg Whole Blood Normalized Agonist EC50
# Experimental: Assay 10: Human Whole Blood IFN-γ Assay
# Human venous whole blood (22.5 μL per well), obtained from healthy donors, was pre-treated with compounds for one hour at 37° C. in a humidified 95% air/5% CO2 incubator. The blood was stimulated with 2.5 μL anti-human CD3 and anti-CD28 mAb at a final concentration of 1 μg/mL each for 24 hours at 37° C. IFN-γ in the supernatants was measured using AlphLISA kit (Cat #AL217).
row,SMILES,EC50 [µM]
1,"CC[C@@H]1CN(c2cc(=O)n(C)c3ccc(C#N)nc23)CC[C@H]1Oc1ccc(C(C)(C)CC)cc1 (single isomer, unassigned) [Example 150]",1.4
2,"C[C@@H]1CN(c2cc(=O)n(C)c3ccc(C#N)nc23)CC[C@H]1Oc1c(F)cccc1F (single isomer, unassigned) [Example 126]",20
3,"CC[C@@H]1CN(c2cc(=O)n(C)c3ccc(C#N)nc23)CC[C@H]1Oc1ccc(C(F)(F)F)cc1 (racemic) [Example 146, 8-((3R,4R)-3-ethyl-4-(4-(trifluoromethyl)phenoxy)piperidin-1-yl)-5-methyl-6-oxo-5,6-dihydro-1,5-naphthyridine-2-carbonitrile]",1.7
4,"CC[C@@H]1CN(c2cc(=O)n(C)c3ccc(C#N)nc23)CC[C@H]1Oc1ccc(C(C)(C)CC)cc1 (racemic) [Example 149, 8-((3R,4R)-3-ethyl-4-(4-(tert-pentyl)phenoxy)piperidin-1-yl)-5-methyl-6-oxo-5,6-dihydro-1,5-naphthyridine-2-carbonitrile]",1.4
5,"C[C@@H]1CN(c2cc(=O)n(C)c3ccc(C#N)nc23)CC[C@H]1Oc1ccc(C2CC2)cc1 (racemic) [Example 111, 8-((3R,4R)-4-(4-cyclopropylphenoxy)-3-methylpiperidin-1-yl)-5-methyl-6-oxo-5,6-dihydro-1,5-naphthyridine-2-carbonitrile]",3.3
6,"CC[C@@H]1CN(c2cc(=O)n(C)c3ccc(C#N)nc23)CC[C@H]1Oc1ccc(C(C)(C)C)cc1 (racemic) [Example 152, 8-((3R,4R)-4-(4-(tert-butyl)phenoxy)-3-ethylpiperidin-1-yl)-5-methyl-6-oxo-5,6-dihydro-1,5-naphthyridine-2-carbonitrile]",1.5
7,"CC[C@@H]1CN(c2cc(=O)n(C)c3ccc(C#N)nc23)CC[C@H]1Oc1ccc(C(C)C)cc1 (racemic) [Example 143, 8-((3R,4R)-3-ethyl-4-(4-isopropylphenoxy)piperidin-1-yl)-5-methyl-6-oxo-5,6-dihydro-1,5-naphthyridine-2-carbonitrile]",2.2
8,"C[C@@H]1CN(c2cc(=O)n(C)c3ccc(C#N)nc23)CC[C@H]1Oc1ccc(F)cc1F (racemic) [Example 113, 8-((3R,4R)-4-(2,4-difluorophenoxy)-3-methylpiperidin-1-yl)-5-methyl-6-oxo-5,6-dihydro-1,5-naphthyridine-2-carbonitrile]",4.1
9,"C[C@@H]1CN(c2cc(=O)n(C)c3ccc(C#N)nc23)CC[C@H]1Oc1ccc(OC(F)(F)F)cc1 (racemic) [Example 79, (+/−) 6-cyano-1-methyl-4-(trans-3-methyl-4-(4-(trifluoromethoxy)phenoxy)piperidin-1-yl)-1,5-naphthyridin-2(1H)-one]",2.2

# Same assay, conditions: Homo sapiens, human whole blood IFN-γ; read-out: INFg Whole Blood
row,SMILES,EC50 [µM]
1,"C[C@@H]1CN(c2cc(=O)n(C)c3ccc(C(N)=O)nc23)CC[C@@H]1OCc1ccc(OC(F)(F)F)cc1 (racemic) [Example 236, (+/−) 5-methyl-8-(cis-3-methyl-4-((4-(trifluoromethoxy)benzyl)oxy)piperidin-1-yl)-6-oxo-5,6-dihydro-1,5-naphthyridine-2-carboxamide]",20
2,"CCCc1cc(O[C@@H]2CCN(c3cc(=O)n(C)c4ccc(C#N)nc34)C[C@H]2CC)ccc1F [Example 195, 8-((3R,4R)-3-ethyl-4-(4-fluoro-3-propylphenoxy)piperidin-1-yl)-5-methyl-6-oxo-5,6-dihydro-1,5-naphthyridine-2-carbonitrile]",0.33
3,"C[C@@H]1CN(c2cc(=O)n(C)c3ccc(C#N)nc23)CC[C@@H]1Oc1ccc(C(F)(F)F)cn1 (single isomer, unassigned) [Example 226]",2.4
4,"C[C@@H]1CN(c2cc(=O)n(C)c3ccc(C#N)nc23)CC[C@@H]1Oc1ncc(C2CC2)cn1 [Example 223, 8-((3R,4S)-4-((5-cyclopropylpyrimidin-2-yl)oxy)-3-methylpiperidin-1-yl)-5-methyl-6-oxo-5,6-dihydro-1,5-naphthyridine-2-carbonitrile]",17
5,"C[C@@H]1CN(c2cc(=O)n(C)c3ccc(C#N)nc23)CC[C@@H]1Oc1ccc(C(F)F)cn1 [Example 208, 8-((3R,4S)-4-((5-(difluoromethyl)pyridin-2-yl)oxy)-3-methylpiperidin-1-yl)-5-methyl-6-oxo-5,6-dihydro-1,5-naphthyridine-2-carbonitrile]",2.1
6,"C[C@@H]1CN(c2cc(=O)n(C)c3ccc(C#N)nc23)CC[C@@H]1Oc1ccc(C2CC2)cn1 [Example 224, 8-((3R,4S)-4-((5-cyclopropylpyridin-2-yl)oxy)-3-methylpiperidin-1-yl)-5-methyl-6-oxo-5,6-dihydro-1,5-naphthyridine-2-carbonitrile]",5.8
7,"CC(C)c1cccc(O[C@H]2CCN(c3cc(=O)n(C)c4ccc(C#N)nc34)C[C@H]2C)n1 (single isomer, unassigned) [Example 215]",2.1
8,"CC(C)Oc1ccc(OC2CCN(c3cc(=O)n(C)c4ccc(C#N)nc34)CC2(C)C)nc1 (racemic) [Example 232, (+/−) 8-(4-((5-isopropoxypyridin-2-yl)oxy)-3,3-dimethylpiperidin-1-yl)-5-methyl-6-oxo-5,6-dihydro-1,5-naphthyridine-2-carbonitrile]",7
9,"COc1ccnc(O[C@H]2CCN(c3cc(=O)n(C)c4ccc(C#N)nc34)C[C@H]2C)n1 [Example 218, 8-((3R,4S)-4-((4-methoxypyrimidin-2-yl)oxy)-3-methylpiperidin-1-yl)-5-methyl-6-oxo-5,6-dihydro-1,5-naphthyridine-2-carbonitrile]",20
10,"CC(C)c1ccc(O[C@H]2CCN(c3cc(=O)n(C)c4ccc(C#N)nc34)C[C@H]2C)nc1 [Example 205, 8-((3R,4S)-4-((5-isopropylpyridin-2-yl)oxy)-3-methylpiperidin-1-yl)-5-methyl-6-oxo-5,6-dihydro-1,5-naphthyridine-2-carbonitrile]",0.37

# Same assay, conditions: Homo sapiens, read-out: INFg Whole Blood, human whole blood IFN-γ
row,SMILES,EC50 [µM]
1,"CC[C@@H]1CN(c2cc(=O)n(C)c3ccc(C#N)nc23)CC[C@H]1Oc1cccc(C(C)(C)C)c1 [Example 196, 8-((3R,4R)-4-(3-(tert-butyl)phenoxy)-3-ethylpiperidin-1-yl)-5-methyl-6-oxo-5,6-dihydro-1,5-naphthyridine-2-carbonitrile]",0.29
2,"CC[C@@H]1CN(c2cc(=O)n(C)c3ccc(C#N)nc23)CC[C@@H]1Oc1ccc(OC(C)C)cn1 [Example 202, 8-((3R,4S)-3-ethyl-4-((5-isopropoxypyridin-2-yl)oxy)piperidin-1-yl)-5-methyl-6-oxo-5,6-dihydro-1,5-naphthyridine-2-carbonitrile]",2

# Same assay, conditions: human whole blood IFN-γ; read-out: INFg Whole Blood
row,SMILES,EC50 [µM]
1,"CC(C)c1ccnc(O[C@H]2CCN(c3cc(=O)n(C)c4ccc(C#N)nc34)C[C@H]2C)c1 (single isomer, unassigned) [Example 213]",4.9
2,CO[C@@H]1CN(c2nc(=O)n(C)c3ccc(C#N)nc23)CC[C@H]1Oc1cccc(C(F)(F)F)c1 (racemic) [Example 277],4.5
3,"CC(C)Oc1ccc(OC2CCN(c3cc(=O)n(C)c4ccc(C#N)nc34)CC2(C)C)nc1 (single isomer, unassigned) [Example 234, 8-(4-((5-isopropoxypyridin-2-yl)oxy)-3,3-dimethylpiperidin-1-yl)-5-methyl-6-oxo-5,6-dihydro-1,5-naphthyridine-2-carbonitrile (rel)]",9.3
4,"CO[C@@H]1CN(c2cc(=O)n(C)c3ccc(C#N)nc23)CC[C@H]1Oc1cccc(C(F)(F)F)c1 (racemic) [Example 261, (±)-trans-8-(3-methoxy-4-(3-(trifluoromethyl)phenoxy)piperidin-1-yl)-5-methyl-6-oxo-5,6-dihydro-1,5-naphthyridine-2-carbonitrile]",0.91
5,"CC(C)Oc1ccc(O[C@H]2CCN(c3cc(=O)n(C)c4ccc(C#N)nc34)C[C@@H]2O)nc1 (racemic) [Example 268, (±)-trans-8-(3-hydroxy-4-((5-isopropoxypyridin-2-yl)oxy)piperidin-1-yl)-5-methyl-6-oxo-5,6-dihydro-1,5-naphthyridine-2-carbonitrile]",13
6,"CO[C@H]1CN(c2cc(=O)n(C)c3ccc(C#N)nc23)CC[C@@H]1Oc1ccc(OC(C)C)cn1 (racemic) [Example 270, (±)-trans-8-(4-((5-isopropoxypyridin-2-yl)oxy)-3-methoxypiperidin-1-yl)-5-methyl-6-oxo-5,6-dihydro-1,5-naphthyridine-2-carbonitrile]",5.4
7,"CC(C)c1ccnc(O[C@H]2CCN(c3cc(=O)n(C)c4ccc(C#N)nc34)C[C@H]2C)c1 (single isomer, unassigned) [Example 212]",1.9

# Same assay, conditions: human whole blood, anti-CD3 plus anti-CD28, 24 hours; read-out: INFg Whole Blood Normalized Agonist EC50
row,SMILES,EC50 [µM]
1,"CC[C@@H]1CN(c2cc(=O)n(C)c3ccc(C#N)nc23)CC[C@H]1Oc1ccc(C(C)C)cc1 (single isomer, unassigned) [Example 145]",7.8
2,"C[C@@H]1CN(c2cc(=O)n(C)c3ccc(C#N)nc23)CC[C@H]1Oc1ccc(C(F)(F)F)cc1 (single isomer, unassigned) [Example 98]",1.2
3,"C[C@@H]1CN(c2cc(=O)n(C)c3ccc(C#N)nc23)CC[C@H]1Oc1ccc(F)c(F)c1 (single isomer, unassigned) [Example 105]",2

# Same assay, conditions: read-out: INFg Whole Blood; human whole blood IFN-γ
row,EC50 [µM],SMILES
1,8.7,"CCO[C@@H]1CN(c2nc(=O)n(C)c3ccc(C#N)nc23)CC[C@H]1Oc1cccc(C(F)(F)F)c1 [Example 279, 4-((3R,4R)-3-ethoxy-4-(3-(trifluoromethyl)phenoxy)piperidin-1-yl)-1-methyl-2-oxo-1,2-dihydropyrido[3,2-d]pyrimidine-6-carbonitrile]"
2,0.64,"CCO[C@@H]1CN(c2nc(=O)n(C)c3ccc(C#N)nc23)CC[C@H]1Oc1cccc(C(F)(F)F)c1 [Example 278, 4-((3R,4R)-3-ethoxy-4-(3-(trifluoromethyl)phenoxy)piperidin-1-yl)-1-methyl-2-oxo-1,2-dihydropyrido[3,2-d]pyrimidine-6-carbonitrile]"
